ChEMBL document CHEMBL1201862, “PubChem BioAssay data set” (2004)
Calls of active or inactive are those of the source. For most assays here, no stated cut-off is given here; in the data, actives have a measured EC50 and inactives only a lower limit.

Experiments:
Large T antigen = Large T antigen (Simian virus 40, UniProt P03070); type: functional, Betapolyomavirus macacae;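 further: Confirmatory-stage PubChem screen for compounds that inhibit SV40 T antigen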
[1] = NIH-3T3 fibroblast cytotoxicity, dose response, cytotoxicity control, cell-based, fluorescence, Alamar Blue, secondary assay (AID 2327); type: functional;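 further: NIH-3T3 mouse fibroblasts cultured with fluconazole at 8 µg/mL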
[2] = C. albicans growth with fluconazole, confirmation, fluorescence, retest (AID 2467); type: functional, cell-based
Streptokinase A = target: T1, Streptokinase A (Streptococcus pyogenes serotype M1, UniProt P10520); assay: S. pyogenes streptokinase expression inhibitors, potency, dose response, plasminogen activation absorbance, OD405 (AID 1914); type: functional, Streptococcus pyogenes M1 GAS;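 further: secreted streptokinase activity via plasminogen activation per viability signal from cell pellet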
T1 sequence (P10520 whole entry): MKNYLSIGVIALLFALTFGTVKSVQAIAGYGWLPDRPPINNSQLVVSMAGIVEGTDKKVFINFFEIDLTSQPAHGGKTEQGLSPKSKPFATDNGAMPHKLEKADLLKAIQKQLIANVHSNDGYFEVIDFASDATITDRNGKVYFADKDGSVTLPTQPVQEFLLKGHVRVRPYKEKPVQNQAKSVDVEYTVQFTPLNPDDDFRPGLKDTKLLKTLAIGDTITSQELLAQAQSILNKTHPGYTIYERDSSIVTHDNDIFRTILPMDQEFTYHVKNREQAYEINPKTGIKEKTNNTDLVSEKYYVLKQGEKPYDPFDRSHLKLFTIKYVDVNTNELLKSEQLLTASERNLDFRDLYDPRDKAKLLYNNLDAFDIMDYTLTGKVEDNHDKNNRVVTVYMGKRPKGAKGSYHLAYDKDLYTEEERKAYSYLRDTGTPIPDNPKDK

Streptococcus = assay: Group A Streptococcus viability loss, dose response, counter-screen for streptokinase expression inhibitor project, luminescence, BacTiterGlo (AID 1915); type: functional, organism-based;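 further: potency for reduction of bacterial viability or growth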
[3] = test system: Streptococcus sp. 'group A'; assay: growth inhibition of control SK(-) GAS strain, dose response, counter-screen for streptokinase expression inhibitor project, luminescence, kanamycin, BacTiterGlo, confirmation (AID 1900); type: functional, organism-based
[4] = target: T2, Heat shock factor protein 1 (Mus musculus, UniProt P38532); assay: HSF1 potentiators in luciferase reporter cells, confirmation, cell-based, NIH3T3, luminescence, dose retest (AID 435004); type: functional;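 further: stress induced by proteasome inhibitor MG132 added 30 min after compound; luciferase reporter driven by HSF1 response element in NIH3T3 cells; actives raise luminescence as potentiators of the MG132 stress response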
T2 sequence (P38532 whole entry): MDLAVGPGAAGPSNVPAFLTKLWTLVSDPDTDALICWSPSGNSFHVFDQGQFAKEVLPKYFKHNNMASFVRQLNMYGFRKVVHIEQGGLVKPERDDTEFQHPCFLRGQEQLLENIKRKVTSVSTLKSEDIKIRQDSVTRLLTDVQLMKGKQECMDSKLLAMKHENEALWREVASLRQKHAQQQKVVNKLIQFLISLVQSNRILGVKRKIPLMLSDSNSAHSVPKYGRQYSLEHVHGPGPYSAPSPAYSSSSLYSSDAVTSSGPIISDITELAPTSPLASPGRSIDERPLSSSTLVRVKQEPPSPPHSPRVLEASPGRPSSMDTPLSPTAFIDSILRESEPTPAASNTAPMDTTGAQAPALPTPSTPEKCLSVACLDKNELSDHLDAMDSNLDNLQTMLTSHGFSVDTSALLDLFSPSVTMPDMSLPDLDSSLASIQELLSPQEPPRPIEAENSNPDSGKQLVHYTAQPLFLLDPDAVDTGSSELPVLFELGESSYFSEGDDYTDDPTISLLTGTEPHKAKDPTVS

[5] = target: T3, Rac GTPase-activating protein 1 (Homo sapiens, UniProt Q9H0H5); assay: MgcRacGAP GTPase-activating activity inhibitors, confirmation, biochemical, ADP Hunter fluorescence, primary and confirmatory (AID 624330); type: functional
T3 sequence (Q9H0H5 whole entry): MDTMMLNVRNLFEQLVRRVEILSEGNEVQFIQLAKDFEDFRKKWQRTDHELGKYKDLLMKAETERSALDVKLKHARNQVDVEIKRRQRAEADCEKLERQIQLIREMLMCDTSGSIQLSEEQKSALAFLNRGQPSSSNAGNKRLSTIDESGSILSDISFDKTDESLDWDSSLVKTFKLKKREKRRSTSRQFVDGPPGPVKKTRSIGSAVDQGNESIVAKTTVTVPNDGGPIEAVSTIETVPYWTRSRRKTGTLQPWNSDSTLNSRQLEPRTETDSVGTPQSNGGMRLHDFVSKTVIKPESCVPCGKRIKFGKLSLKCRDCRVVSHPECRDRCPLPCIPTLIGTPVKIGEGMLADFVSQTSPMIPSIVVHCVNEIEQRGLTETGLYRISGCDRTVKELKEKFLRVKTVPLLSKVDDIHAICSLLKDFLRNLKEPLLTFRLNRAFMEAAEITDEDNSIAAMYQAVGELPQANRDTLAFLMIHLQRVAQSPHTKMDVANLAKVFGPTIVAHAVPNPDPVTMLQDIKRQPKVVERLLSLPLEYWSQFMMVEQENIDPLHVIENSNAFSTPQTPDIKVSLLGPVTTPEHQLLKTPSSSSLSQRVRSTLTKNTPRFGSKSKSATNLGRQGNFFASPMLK

[6] = inhibitors of firefly luciferase expression or activity, dose response, H4 neuroglioma cells, luminescence (AID 1990); type: functional, cell-based
[7] = inhibitors of SNCA 5'UTR-driven reporter translation, confirmation, H4 neuroglioma cells, luminescence (AID 1988); type: functional, cell-based
[8] = Luminescence Cell-Based Dose Response HTS to Identify Inhibitors of 5'UTR Stem-Loop Driven Prion Protein mRNA Translation in H4 Neuroglioblastoma Cells. [Related pubchem assays: 1827 (Project Summary), 1813 (Primary HTS)]; type: functional
[9] = target: T4, Polyadenylate-binding protein 1 (Homo sapiens, UniProt P11940); assay: PABP1 MLLE–PAM2 interaction inhibitors, dose response, miRNA deadenylation inhibitor project, biochemical, fluorescence polarization, Cy5-PAM2 peptide, secondary (AID 602260); type: functional; details: read-out: IC50_Mean
T4 sequence (P11940 whole entry): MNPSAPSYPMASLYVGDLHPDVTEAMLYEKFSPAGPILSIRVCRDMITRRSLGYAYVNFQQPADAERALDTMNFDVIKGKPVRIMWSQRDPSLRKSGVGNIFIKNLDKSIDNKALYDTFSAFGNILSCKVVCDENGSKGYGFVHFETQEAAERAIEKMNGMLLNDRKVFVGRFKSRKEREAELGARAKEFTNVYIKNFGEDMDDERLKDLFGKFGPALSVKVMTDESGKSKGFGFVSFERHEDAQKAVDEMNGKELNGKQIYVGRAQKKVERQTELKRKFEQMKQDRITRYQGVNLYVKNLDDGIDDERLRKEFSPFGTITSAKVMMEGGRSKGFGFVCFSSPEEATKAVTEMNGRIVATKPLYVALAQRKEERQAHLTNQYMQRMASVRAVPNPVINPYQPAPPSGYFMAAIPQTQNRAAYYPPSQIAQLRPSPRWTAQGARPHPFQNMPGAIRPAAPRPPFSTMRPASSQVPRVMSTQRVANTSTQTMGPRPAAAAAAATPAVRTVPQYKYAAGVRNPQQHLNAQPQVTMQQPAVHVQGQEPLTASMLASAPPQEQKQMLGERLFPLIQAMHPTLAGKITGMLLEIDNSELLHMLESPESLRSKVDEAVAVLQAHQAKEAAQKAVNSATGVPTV

[10] = target: T4, Polyadenylate-binding protein 1; assay: PABP1 MLLE–PAM2 binding inhibitor potency, dose response, biochemical, fluorescence polarization, FITC-PAM2 peptide (AID 602259); type: functional; details: read-out: IC50_Mean
Protein RecA = target: T5, Protein RecA (Mycobacterium tuberculosis, UniProt P9WHJ3); assay: Fluorescence Cell-Free Homogeneous Dose Retest to Identify Inhibitors of RecA-Intein Splicing Activity. [Related pubchem assays (depositor defined):AID2097, AID2223, AID489010, AID492950]; type: functional
T5 sequence (P9WHJ3 whole entry): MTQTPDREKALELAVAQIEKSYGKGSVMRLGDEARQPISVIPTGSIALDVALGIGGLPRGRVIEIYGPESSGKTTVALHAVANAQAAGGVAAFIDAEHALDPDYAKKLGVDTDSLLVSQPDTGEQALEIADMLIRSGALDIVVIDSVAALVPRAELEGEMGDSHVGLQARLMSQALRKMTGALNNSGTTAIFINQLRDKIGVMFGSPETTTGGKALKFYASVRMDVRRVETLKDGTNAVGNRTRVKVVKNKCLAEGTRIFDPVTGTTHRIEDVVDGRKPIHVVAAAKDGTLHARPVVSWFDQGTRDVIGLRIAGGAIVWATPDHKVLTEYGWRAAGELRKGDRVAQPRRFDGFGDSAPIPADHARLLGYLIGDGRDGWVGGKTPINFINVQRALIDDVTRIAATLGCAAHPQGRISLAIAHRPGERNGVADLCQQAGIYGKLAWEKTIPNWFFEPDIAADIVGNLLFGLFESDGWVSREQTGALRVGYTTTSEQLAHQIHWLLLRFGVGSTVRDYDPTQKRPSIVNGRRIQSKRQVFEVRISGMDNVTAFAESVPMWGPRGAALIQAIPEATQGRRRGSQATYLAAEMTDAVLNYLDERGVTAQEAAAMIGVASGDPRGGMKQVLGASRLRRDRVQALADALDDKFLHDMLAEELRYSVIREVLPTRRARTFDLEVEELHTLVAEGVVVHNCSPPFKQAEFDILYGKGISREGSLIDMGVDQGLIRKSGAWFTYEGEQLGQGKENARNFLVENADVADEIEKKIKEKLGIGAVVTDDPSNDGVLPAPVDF

[11] = inhibitors of intracellular T. cruzi replication, confirmation, NIH3T3 host cells, beta-gal luminescence (AID 2044); type: functional, cell-based;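 further: intracellular parasites grown in NIH/3T3 mouse fibroblasts as host cells; luminescent beta-galactosidase reporter signal from transgenic T. cruzi replicating inside host cells; inhibitors lower the luminescence signal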
[12] = cytotoxicity toward NIH3T3 fibroblasts, dose response, counter-screen, cell-based, ATP luminescence, mouse fibroblasts (AID 2010); type: functional;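 further: cells exposed to compound for about 90 hours before reading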
INS1 = assay: beta cell apoptosis inhibitors, cytokine rescue, dose response, luminescence, retest (AID 449756); type: functional, cell-based; details: Rattus norvegicus;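 further: cell death triggered by IL-1 beta plus TNF-alpha plus IFN-gamma mixture; protective hits raise ATP signal compared with cytokine alone wells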
[13] = Luminescence Cell-Based Dose Retest to Confirm Inhibitors of Cancer Stem Cells. [Related pubchem assays (depositor defined):AID2717, AID2721]; type: functional; details: Homo sapiens
[14] = target: T6, Replicative DNA helicase DnaB (Mycobacterium tuberculosis, UniProt P9WMR3); assay: DnaB intein splicing inhibitors, dose response, biochemical, cell-free fluorescence (AID 449749); type: functional
T6 sequence (P9WMR3 whole entry): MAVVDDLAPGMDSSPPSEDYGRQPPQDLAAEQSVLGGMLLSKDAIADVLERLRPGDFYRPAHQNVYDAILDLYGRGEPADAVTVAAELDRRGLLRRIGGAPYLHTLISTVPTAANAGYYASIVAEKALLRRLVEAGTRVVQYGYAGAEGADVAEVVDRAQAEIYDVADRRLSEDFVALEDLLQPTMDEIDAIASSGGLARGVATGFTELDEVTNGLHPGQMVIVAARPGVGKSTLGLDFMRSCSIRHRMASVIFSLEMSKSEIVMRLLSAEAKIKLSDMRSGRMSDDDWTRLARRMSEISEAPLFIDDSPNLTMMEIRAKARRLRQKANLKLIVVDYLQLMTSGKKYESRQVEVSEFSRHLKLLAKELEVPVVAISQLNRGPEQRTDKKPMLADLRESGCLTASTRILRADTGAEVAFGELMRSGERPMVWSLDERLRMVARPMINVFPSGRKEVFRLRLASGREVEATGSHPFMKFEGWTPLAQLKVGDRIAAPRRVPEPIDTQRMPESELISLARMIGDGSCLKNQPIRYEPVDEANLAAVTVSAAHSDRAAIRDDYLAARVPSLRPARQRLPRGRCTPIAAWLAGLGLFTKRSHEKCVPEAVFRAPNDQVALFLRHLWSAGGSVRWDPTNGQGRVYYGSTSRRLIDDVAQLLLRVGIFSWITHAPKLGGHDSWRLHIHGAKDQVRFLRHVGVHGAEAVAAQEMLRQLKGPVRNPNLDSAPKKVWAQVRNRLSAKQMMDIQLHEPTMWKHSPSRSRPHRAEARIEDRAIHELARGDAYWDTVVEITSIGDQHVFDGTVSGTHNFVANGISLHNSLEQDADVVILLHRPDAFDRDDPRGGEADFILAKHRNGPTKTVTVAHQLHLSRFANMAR

Chain of Large T antigen (P03070 whole entry): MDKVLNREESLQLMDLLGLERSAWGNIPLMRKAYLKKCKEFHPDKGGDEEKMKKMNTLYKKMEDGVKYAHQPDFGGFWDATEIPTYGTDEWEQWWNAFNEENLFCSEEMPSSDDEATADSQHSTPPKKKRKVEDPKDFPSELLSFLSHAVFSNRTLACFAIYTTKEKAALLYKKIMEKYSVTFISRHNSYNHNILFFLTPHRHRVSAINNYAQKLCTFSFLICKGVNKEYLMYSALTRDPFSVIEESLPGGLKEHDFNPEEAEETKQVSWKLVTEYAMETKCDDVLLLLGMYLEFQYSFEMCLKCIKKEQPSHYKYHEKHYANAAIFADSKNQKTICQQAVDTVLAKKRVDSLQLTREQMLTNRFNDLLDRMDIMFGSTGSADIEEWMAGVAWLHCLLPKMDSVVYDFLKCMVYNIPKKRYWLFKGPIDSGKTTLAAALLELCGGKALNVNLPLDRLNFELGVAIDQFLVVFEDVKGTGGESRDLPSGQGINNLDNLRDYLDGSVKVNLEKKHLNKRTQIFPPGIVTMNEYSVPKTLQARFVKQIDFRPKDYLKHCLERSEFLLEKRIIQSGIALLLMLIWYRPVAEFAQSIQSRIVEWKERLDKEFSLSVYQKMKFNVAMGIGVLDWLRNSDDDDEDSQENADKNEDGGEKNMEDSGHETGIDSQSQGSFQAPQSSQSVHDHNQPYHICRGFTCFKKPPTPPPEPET

In the case of O=C1ON=C(c2ccccc2)/C1=C\c1ccco1, the IC50 (Large T antigen) is reported as 28.2 µM (active).
For CC(=O)Oc1cc2oc(=O)cc(C)c2cc1OC(C)=O, the IC50 (Large T antigen) was 21.4 µM (active).
In the case of COc1ccc(C)cc1N=C(S)NNC(=O)c1c(Br)cnn1C, the EC50 [1] is reported as > 150 µM (inactive) and the EC50 [2] is reported as 1.45 µM (active).
In the case of CCOC(=O)c1[nH]c2ccc(F)cc2c1NC(=O)c1ccccc1C(=O)O, the EC50 (Streptokinase A) is reported as > 150 µM (not active), the EC50 (Streptococcus) is reported as > 150 µM (not active) and the EC50 [1] is reported as > 150 µM (inconclusive). For the same compound, the EC50 [2] was > 38 µM (not active) and the EC50 [3] was > 150 µM (not active).
With COc1ccc2c(c1)C(=O)Cc1ccccc1O2 the IC50 (Large T antigen) was 86.7 µM (active).
With CN1C(=O)C2C(c3ccc(N(C)C)cc3)=NN(Cc3ccccc3)C2C1=O (centres undefined) the EC50 [4] was 40.3 µM (active), the IC50 (Large T antigen) was 19 µM (active) and the IC50 [5] was 43 µM (active).
With CCCOC(c1ccccc1)(c1ccc(C(F)(F)F)cc1)C(Oc1nc(C)cc(C)n1)C(=O)O (centres undefined) the EC50 [1] was > 160 µM (inactive), the EC50 [2] was 1.91 µM (active) and the EC50 [6] was 12.4 µM (active). The EC50 [7] was 8.08 µM (active) and the EC50 [8] was 11.4 µM (active).
For Cc1c(NC(=O)C(C)N2CC(C)OC(C)C2)c(=O)n(-c2ccccc2)n1C (centres undefined), the EC50 [4] was > 260 µM (inactive).
In the case of CCCCn1c(SCC(=O)Nc2cccc(OC)c2)nc2ccc(N3CCOCC3)cc2c1=O, the EC50 [1] is reported as 141 µM (active) and the EC50 [2] is reported as > 38 µM (not active).
For NC(=O)CN(c1ccccc1)C1SC(=O)N(Cc2ccccc2)C1=O (centres undefined), the IC50 [9] was > 66 µM (inactive) and the IC50 [10] was > 66 µM (inactive).
For CC(C)(C)c1ccc(/C=C(\c2nc3ccccc3[nH]2)S(=O)(=O)c2ccccc2)cc1, the EC50 (Protein RecA) was 2.77 µM (active), the EC50 [11] was 0.995 µM (active) and the EC50 [12] was > 60 µM (not active). The AC50 (INS1) was 6.71 µM (active), the AC50 [13] was 1.36 µM (active) and the AC50 [14] was 2.19 µM (active).
